pIC50, pKi: −log10 of the molar value. Counter-ions that a name gives are not always drawn.
Tests used:
[1] = tested on: platelet aggregation induced by the TXA2 agonist, U46619; assay: Platelet aggregation in dogs (PRP, adrenalin + U46619-induced); assay type: cell-based; details: Canis lupus familiaris, 0.05 h, dog PRP, 37° C., 3 min, adrenalin (10 μM) then U46619, read-out: IC50 Dog (inhibition of aggregation to U46619 + adrenalin)
Protocol: After anesthetizing the animal with pentobarbital sodium (30 mg/kg i.v.), arterial blood is withdrawn onto sodium citrate (0.109M) (1 vol. of citrate per 9 vol. of blood). The platelet-rich plasma (PRP) is obtained after centrifugation (20° C.) at 200 g for 10 minutes. The number of platelets in the PRP is, on average, 300,000 PL/mm^3 The PRP is stored at the temperature of the room until the time of the test, and is used within 4 hours following withdrawal.
The PRP is incubated at 37° C. in the presence of the antagonist to be tested for 3 minutes. Aggregation is subsequently obtained by the addition of adrenalin (10μM) followed by that of U46619 […] 30 seconds later.

[2] = tested on: platelet aggregation induced by the TXA2 agonist, U46619; assay: Platelet aggregation in rabbits (PRP, U46619-induced); assay type: cell-based; details: Oryctolagus cuniculus, rabbit PRP, 37° C., antagonist 3 min before U46619, read-out: IC50 Rabbit (inhibition of U46619-induced platelet aggregation)
Protocol: Rabbits (2-3 kg) are anesthetized with pentobarbital sodium (30 mg/kg i.v.). After cannulation of the left carotid artery, blood is withdrawn onto sodium citrate (0.109M) (1 vol. of citrate per 9 vol. of blood).
Platelet-rich plasma (PRP) is obtained by centrifugation (20° C.) at 250 g for 20 minutes, and platelet-poor plasma (PPP) by centrifugation at 1000 g (10 min). The number of platelets (PL) in the PRP is adjusted to between 300-350,000 PL/mm^3 by dilution with autologous PPP. The PRP is stored at the temperature of the room until the time of the test, and is used within 4 hours following withdrawal.
Platelet aggregation is carried out at 37° C. in siliconed glass tubes using an aggregometer. The PRP and PLs are stirred at 1000 rpm (revolutions per minute). In order to study the activity of thromboxane antagonists, the PRP is incubated for 1 min at 37° C., and the antagonist is then added for a period of 3 min before addition of the agonist U46619 […]. The final volume in the cell is then […]. The intensity of platelet aggregation is established by taking the maximum amplitude of the aggregation plots and is expressed as a percentage light transmission (% T).

[3] = tested on: platelet aggregation of U46619; assay: ex vivo platelet aggregation in dogs after oral administration; set-up: species or system dog
Protocol: The experiments are carried out on non-anesthetized dogs. After applying a tourniquet and introduction of a needle into the cephalic vein, blood is withdrawn onto sodium citrate (0.109M). The blood is stored at the temperature of the room. Platelet aggregation is measured in the total blood using an impedance probe in an aggregometer. The pro-aggregating activity of the thromboxane receptor agonist, U46619, is tested in the presence of adrenalin (10 μM). The products of the invention and the reference substances are administered to dogs orally after performing the control test. Blood samples are subsequently withdrawn at determined times: t=30 min, 1 h, 2 h, 4 h, 6 h, 24 h, 48 h, etc. until the aggregation activity of U46619 has fully returned.

platelet TXA2 receptors = target: T1, platelet TXA2 receptors (Homo sapiens, UniProt P21731); assay: Specific binding to human platelet membranes (3H-SQ29548 competition); details: 25° C., Cheng and Prusoff
T1 construct: platelet membranes, prepared from washed, ground and centrifuged human platelets; from tissue; host or cells: human platelets (membranes)
T1 sequence (P21731 1-343): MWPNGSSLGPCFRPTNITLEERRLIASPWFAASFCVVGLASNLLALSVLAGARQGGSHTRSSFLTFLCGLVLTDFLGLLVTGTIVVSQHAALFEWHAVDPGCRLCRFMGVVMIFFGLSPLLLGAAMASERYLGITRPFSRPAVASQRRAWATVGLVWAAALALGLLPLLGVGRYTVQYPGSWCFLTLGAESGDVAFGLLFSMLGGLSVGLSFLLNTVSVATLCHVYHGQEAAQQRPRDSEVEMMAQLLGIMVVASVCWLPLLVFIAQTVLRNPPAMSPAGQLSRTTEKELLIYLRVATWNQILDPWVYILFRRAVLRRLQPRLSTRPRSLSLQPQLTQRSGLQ
Protocol: The experiments take place at a temperature of 25° C. in a final reaction volume of 0.2 ml in the presence of 0.1 mg of platelet membranes, prepared from washed, ground and centrifuged human platelets. Determination of the activity of the products of the invention is made by competition experiments, in which increasing concentrations of product are placed in the presence of a fixed concentration of ^3 H-SQ29548. This protocol makes it possible to produce inhibition curves for each antagonist studied. The 50% inhibitory concentration is determined by non-linear regression by the "Simplex" method described by M. S. Caceci et al., (Byte, 340-362, May 1984) calculated according to the mass action law model of C. Michaelis et al. (Biochem. Zeitschrift, 49, 333-369, 1913). The inhibition constant is then determined using the formula of Cheng and Prusoff (Biochem. Pharmacol., 22, 3099-3108, 1973).

[4] = tested on: platelet aggregation induced by the TXA2 agonist, U46619; assay: Platelet aggregation in man (PRP, U46619-induced); assay type: cell-based; details: human PRP, procedure of Example 19, U46619 0.3 mM, read-out: IC50 (inhibition of U46619-induced platelet aggregation)
Protocol: Dog platelets respond weakly to U46619 alone. […] The PRP is incubated at 37° C. in the presence of the antagonist to be tested for 3 minutes. Aggregation is subsequently obtained by the addition of adrenalin (10μM) followed by that of U46619 […] 30 seconds later.
Venous blood is obtained from human volunteers who have taken no aspirin for at least 14 days preceding the experiment. Blood is withdrawn onto sodium citrate (0.109M) (1 vol. of citrate per 9 vol. of blood). Platelet-rich plasma (PRP) is obtained after centrifugation (20° C.) at 200 g for 10 minutes. The number of platelets is, on average, 250,000 PL/mm^3. The PRP is stored at the temperature of the room until the time of the test, and is used within 2 hours following withdrawal. The antagonists are tested according to the procedure described in Example 19, using U46619 at the concentration of […].

[5] = tested on: guinea pig carotid artery; assay: Experimental thrombosis in guinea pig carotid artery; assay type: in vivo; details: i.v. injection of 100 μg/kg, n=3; 10±2 CFV/20 min before the treatment; control 9±1 then 8±1
Protocol: The technique recently described by Roux et al., Thrombosis and Haemostasis, 71, 252-256 (1994), was used in order to measure the anti-thrombotic effect of our products. Male guinea pigs (390 to 420 g) were anesthetized with ketamine hydrochloride (90 mg/kg i.m.) and xylazine (12 mg/kg i.m.). A catheter is introduced into the left jugular vein in order to allow the i.v. injection of the substances. The right carotid artery is prepared and a Doppler probe (20 MHz) is installed, which allows the blood flow to be measured. At a distance of two mm from the Doppler probe a subendothelial lesion is produced using a clamp ("pinching"). After introduction of this lesion, the blood flow decreases and stops altogether (between 1 and 2 min). When the flow is at zero, the artery is touched, which removes the occlusive thrombus and restores the flow (see Roux et al., 1994). This thrombotic process is repeated and the cyclic decreases in the flow (CFV=cyclic flow variations) are expressed as a number per 20 min. In control carotid arteries (n=4), the CFVs are counted over 2 periods of 20 min: during the first period, 9±1 CFV/20 min are counted; during the second period, 8±1 CFV/20 min are counted. In a group of animals (n=3) treated with the compound of Example 1, 10±2 CFV/20 min are counted before the treatment and 0.3±0.3 CFV/20 min are counted alter an i.v. injection of 100 μg/kg.

SMILES | pIC50 [1] | pIC50 [2] | other results
O=C(O)CCn1c2c(c3ccccc31)C[C@H](NS(=O)(=O)c1ccc(F)cc1)CC2 [BAY U3405, reference compound] | 6.96 | 5.96 | duration of total inhibition of aggregation ex vivo ([3]; 100 μg/kg per os): 6 h; pKi (platelet TXA2 receptors): 8.44; pIC50 [4]: 6.74
Cc1ccc2c(c1CCC(=O)O)CCC(NS(=O)(=O)c1ccc(Cl)cc1)C2 (stereo not shown) [Example 1, 3-{6-[(4-Chlorophenylsulfonyl)amino]-2-methyl-5,6,7,8-tetrahydronaphth-1-yl}propionic acid, sodium salt] | 7.55 | 6.62 | cyclic flow variations (CFV) after treatment [5]: 0.3±0.3 CFV/20 min; duration of complete inhibition of U46619 platelet aggregation ex vivo ([3]; 10 μg/kg per os): at least 3 days; duration of inhibition of U46619 platelet aggregation ex vivo ([3]; 100 μg/kg per os): at least 8 days; inhibition of U46619 platelet aggregation ex vivo (words, compared with 100 μg/kg per os, at least 8 days) ([3]; 3 mg/kg per os): same result; duration of complete inhibition of U46619 platelet aggregation ex vivo ([3]; 10 to 3000 μg/kg, orally): at least 3 days; duration of complete inhibition of U46619 platelet aggregation ex vivo, highest dose ([3]; highest dose of 10 to 3000 μg/kg, orally): up to 11 days; pKi (platelet TXA2 receptors): 9.02; pIC50 [4]: 7.08
Cc1ccc2c(c1CCC(=O)O)CCC(NS(=O)(=O)c1ccc(F)cc1)C2 (stereo not shown) [Example 3, 3-{6-[(4-Fluorophenylsulfonyl)amino]-2-methyl-5,6,7,8-tetrahydronaphth-1-yl}propionic acid, sodium salt] | 8.00 | 6.57 | 
Cc1ccc2c(c1CCC(=O)O)CCC(NS(=O)(=O)c1cccc3ccccc13)C2 (stereo not shown) [Example 8, 3-[6-(1 -Naphthylsulfonylamino)-2-methyl-5,6,7,8-tetrahydronaphth-1-yl]propionic acid] | 6.82 |  | 
Cc1ccc(S(=O)(=O)NC2CCc3c(CCC(=O)O)cccc3C2)cc1 (stereo not shown) [Example 9, 3-[6-(4-Tolylsulfonylamino)-5,6,7,8-tetrahydronaphth-1-yl]propionic acid] | 7.82 | 6.49 | 
Cc1cc(CCC(=O)O)c2c(c1)CC(NS(=O)(=O)c1ccc(F)cc1)CC2 (stereo not shown) [Example 11, 3-{6-[(4-Fluorophenylsulfonyl)amino]-3-methyl-5,6,7,8-tetrahydronaphth-1-yl}propionic acid] | 7.25 | 6.17 | 
O=C(O)CCc1cccc2c1OCC(NS(=O)(=O)c1ccc(Cl)cc1)C2 (stereo not shown) [Example 16, 3-[3-(4-Chlorophenylsulfonyl)amino-8-chromanyl]propionic acid] | 7.70 | 6.60 | 
O=C(O)CCc1cccc2c1OCC(NS(=O)(=O)c1ccc(F)cc1)C2 (stereo not shown) [Example 17, 3-[3-(4-Fluorophenylsulfonyl)aminochroman-8-yl]propionic acid] |  | 5.96 | 
